According to PubChem BioAssay AID602378 (Sanford-Burnham Center for Chemical Genomics, 2012):
Calls of active or inactive are those of the source. No rule for the calls is given here.

tested on: S. cerevisiae tim10-1 mutant yeast, luminescence growth read-out; test: growth inhibition of tim10-1 mutant yeast, SAR follow-up, counter-screen for tim23-1 inhibitor project, luminescence, S. cerevisiae (AID 602378)

SMILES | IC50
O=C(CSc1cccc[n+]1[O-])Nc1ccccc1Oc1ccccc1 | 0.949 µM
Nc1cccc(Oc2ccc(Oc3cccc(N)c3)cc2)c1 | > 99 µM (inactive)
Cc1noc(C)c1S(=O)(=O)Nc1ccc(-c2cn3c(n2)SCC3)cc1 | > 99 µM (inactive)
CCOc1ccc(NS(=O)(=O)c2c(C)nc3scc(C)n3c2=O)cc1 | > 99 µM (inactive)
N/C(Cc1cccc2ccccc12)=N\OC(=O)COc1ccc(Cl)cc1Cl | 27.9 µM
O=c1cc(CSc2ccc(S(=O)(=O)N3CCCCC3)cn2)nc2ccc(Br)cn12 | > 99 µM (inactive)
Cc1ccc(-c2nn(-c3ccccc3)cc2NC(=O)CCl)cc1 | 1.88 µM
O=C(Nc1nc2ccccc2s1)C1CCCN1S(=O)(=O)c1ccc(Cl)cc1 (stereo not given) | 13.1 µM
N/C(=N\OC(=O)c1cccc2ccccc12)c1ccc(Cl)cc1 | 1.03 µM
CCCN(C(=O)c1ccc([N+](=O)[O-])c(C)c1)c1c(N)n(Cc2ccccc2)c(=O)[nH]c1=O | 1.08 µM
CC(C)Cn1cnc2c(c(-c3ccccc3)c(-c3ccccc3)n2Cc2ccco2)c1=N | 16.8 µM
Cc1nc2scc(C)n2c(=O)c1S(=O)(=O)Nc1ccccc1 | 66.9 µM
CS(=O)(=O)Nc1ccc(/C(N)=N/OC(=O)c2ccccc2Cl)cc1 | > 99 µM (inactive)
Cc1ccc2nc(N3C(=O)CNC3=S)sc2c1 | 13 µM
Cc1csc(NC(=O)c2sc3nc4c(cc3c2N)CN(C)CC4)n1 | > 99 µM (inactive)
NC(=O)C1CCN(c2nc(-c3cccnc3)nc3ccccc23)CC1 | > 99 µM (inactive)
Cc1ccc(OCC(=O)O/N=C(\N)Cc2ccc(Cl)cc2)cc1 | 2.57 µM
CCCCOc1ccc(C(=O)O/N=C(\N)c2cccc(Br)c2)cc1 | 1.09 µM
Oc1ccc(Oc2ccc(Oc3ccc(O)cc3)cc2)cc1 | 25.6 µM
O=C(N/N=C/C(Cl)=C\c1ccccc1)c1cccs1 | 42.7 µM

SMILES | IC50
CN1CCc2nc3sc(C(=O)C45CC6CC(CC(C6)C4)C5)c(N)c3cc2C1 | 69.3 µM
N#Cc1c(-c2ccccc2)cc(-c2ccc(O)cc2)nc1N | 10.3 µM
Cc1ccc(Nc2nc(-c3cccnc3)nc3ccccc23)cc1 | 14.1 µM
Cc1nn(Cc2cccc(C(=O)O/N=C(\N)c3ccc(Cl)cc3)c2)c(C)c1Br | 1.51 µM
N#C/C(=C\c1ccc(Cl)cc1)C(=O)Nc1cccnc1 | 25.6 µM
Cc1ccc2nc(CS(=O)(=O)c3ncccc3Cl)cc(=O)n2c1 | > 99 µM (inactive)
Cc1nc2scc(C)n2c(=O)c1S(=O)(=O)Nc1ccc(OC(F)(F)F)cc1 | 26.5 µM
Cc1ccc2nc(CSc3ccc(S(=O)(=O)N4CCCC4)cn3)cc(=O)n2c1 | > 99 µM (inactive)
CC(=O)c1ccc2[nH]c3c(c2c1)CCCC3=O | > 99 µM (inactive)
Cc1nc2scc(C)n2c(=O)c1S(=O)(=O)Nc1ccc(N2CCN(C(=O)C(C)C)CC2)cc1 | > 99 µM (inactive)
CCOc1ccc2nc(N3C(=O)CNC3=S)sc2c1 | > 99 µM (inactive)
N/C(=N\OC(=O)c1ccc(Cl)cc1)c1cccc(CS(=O)(=O)c2ccccn2)c1 | 14 µM
O=C1OC(c2ccccc2)=N/C1=C\C=C\c1ccco1 | 3.62 µM
COc1cc2c(cc1OC)/C(=C/c1ccc(Cl)cc1)C(=O)OC2 | 10.8 µM
COc1ccc(/C=C/C(=O)Nc2ccc3c(c2)CCC3)cc1OC | 17.5 µM
Cc1ccc(/C(N)=N/OC(=O)c2ccccc2)cc1F | 1.12 µM
CC(C)(C)c1csc(NC(=O)c2ccc(Cl)s2)n1 | 54.7 µM
Cc1cc(OCC(=O)O/N=C(\N)Cc2ccc(Cl)cc2)ccc1Br | 3.28 µM
O=C(CSCc1ccccc1)Nc1cc(S(=O)(=O)N2CCOCC2)ccc1Oc1ccccc1 | > 99 µM (inactive)
Cc1nc2scc(C)n2c(=O)c1S(=O)(=O)Nc1cccc(O)c1 | > 99 µM (inactive)

SMILES | IC50
O=C(Nc1ccn[nH]1)c1cccc(OCc2cccnc2)c1 | > 99 µM (inactive)
N/C(=N\OC(=O)c1ccccc1)c1ccc(F)cc1F | 6.71 µM
Cc1nc2scc(C)n2c(=O)c1S(=O)(=O)Nc1cc(C(F)(F)F)ccc1Cl | > 99 µM (inactive)
Cc1ccc(-c2nc3ccc(NC(=O)c4cccs4)cc3[nH]2)o1 | 16.4 µM
Cc1nc2scc(C)n2c(=O)c1S(=O)(=O)Nc1ccc(Oc2ccc(Cl)cc2)cc1 | > 99 µM (inactive)
O=c1cc(CSc2ccc(S(=O)(=O)N3CCOCC3)cn2)nc2ccc(Br)cn12 | 77.4 µM
CC1(C)C=Cc2cc(/C(N)=N/OC(=O)c3ccccc3)ccc2O1 | 0.66 µM
Cc1nc2scc(C)n2c(=O)c1S(=O)(=O)Nc1ccc(N2CCOCC2)c(Cl)c1 | > 99 µM (inactive)
CCN(C(=O)c1cccc2ncccc12)c1c(N)n(Cc2ccccc2)c(=O)[nH]c1=O | > 99 µM (inactive)
C=C1CCc2c([nH]c3ccc(OCC(C)C)cc23)C1=O | > 99 µM (inactive)
CC(=O)c1ccc(NS(=O)(=O)c2c(C)nc3scc(C)n3c2=O)cc1 | > 99 µM (inactive)
N/C(=N\OC(=O)c1ccc2ccccc2c1)c1ccc(I)cc1 | > 99 µM (inactive)
COc1ccc(Cl)cc1NS(=O)(=O)c1c(C)nc2scc(C)n2c1=O | > 99 µM (inactive)
O=C(Nc1ccc2nc(-c3ccc(Br)o3)[nH]c2c1)c1cccs1 | 24.6 µM
O=C(Nc1ccc(-c2cn3ccccc3n2)cc1)c1cccs1 | > 99 µM (inactive)
Cc1nc2scc(C)n2c(=O)c1S(=O)(=O)Nc1ccc(N2CCN(S(C)(=O)=O)CC2)cc1 | > 99 µM (inactive)
Cc1nc2scc(C)n2c(=O)c1S(=O)(=O)Nc1ccc(N2CCOCC2)cc1 | > 99 µM (inactive)
N/C(=N\OC(=O)c1ccc(Cl)cc1)c1ccc(Cl)cc1 | 1.1 µM
CCOc1cc2ccccc2cc1C(=O)O/N=C(\N)c1ccc(Cl)cc1 | 1.61 µM
Cc1c2c(n(Cc3ccco3)c1C)N=CN1CCS(=O)(=O)N=C21 | > 99 µM (inactive)
